The record followed here is patent US20250283871A1, “COMPOSITIONS AND METHODS FOR MODULATING THE INTERACTION BETWEEN SS18-SSX FUSION ONCOPROTEIN AND NUCLEOSOMES” (Dana-Farber Cancer Institute, Inc., priority 2020, published 2025).

The subject of one assay is Barr bodies (inactive X). Put plainly: Immunofluorescence, Barr body localization. Format: cell-based, human. The settings on record: immunofluorescence. How it is done:
Immunofluorescent images were obtained as previously described (Daou et al. (2011) Pro. Nat. Acad. Sci. U.S.A 108:2747-2752). Following lentiviral infection and/or drug treatment, cells were prepared by fixation in 3% PFA-PBS and then were permeabilized with PBS 0.1% NP40. Following incubation with primary antibodies, the Anti-rabbit Alexa Fluor® 594 and Anti-mouse Alexa Fluor® 488 (Life Technologies) secondary antibodies were used for visualization. Staining with 4′,6-diamidino-2-phenylindole (DAPI) was used to visualize nuclei. Images were acquired using Zeiss Axio Imager Z2 microscope and images were processed using ImageJ program (NIH).

The subject of another assay is SYO-1 SS cells. Briefly: Cell proliferation assay. It is filed as cell-based, human. The settings on record: SYO-1, rescue with variant. How it is done: To measure cell proliferation following lentiviral infection, 2.5×10^4 cells per well were seeded in 12-well plates following 48-hour exposure to lentivirus and 5-day selection with puromycin or blasticidin, with Day 7 denoting the day cells were plated after infection and selection. The cell viability in three wells was then measured using a Vi-CELL™ Cell Counter (Beckman, Brea, CA) every 72 hours.

For assay [1], the target named is T1, mammalian mononucleosomes from HEK-293T cells (Homo sapiens, UniProt P0C0S5).
T1 construct: endogenous in cells; host or cells: HEK293T (chromatin digested with MNase, glycerol gradient)
T1 sequence (P0C0S5 whole entry): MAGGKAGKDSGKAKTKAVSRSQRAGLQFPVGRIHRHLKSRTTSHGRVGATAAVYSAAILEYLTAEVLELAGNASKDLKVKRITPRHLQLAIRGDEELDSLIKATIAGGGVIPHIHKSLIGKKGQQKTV
Briefly: Quantitative targeted mass spectrometry of histone marks on MBP-SSX1 78aa-bound nucleosomes (Tables 6A-6C). Format: binding. The settings on record: SSX1 pulldown, HEK293T nucleosomes; parent peptide H2A.Z; normalized to histone norm peptide, log2. The method, then: (§1) Mammalian mono-nucleosomes purified from MBP-SSX1 78aa pull downs along with representative input samples were prepared and analyzed by the targeted mass spectrometry pipeline described previously (Creech et al. (2015) Methods 72:57-64). Briefly, samples were prepared by histone extraction by acid precipitation followed by protein digestion from incubation with trypsin. To these prepared samples, synthesized isotopically labeled peptides of histone tails with numerous modifications were added at a known quantity. Each sample was then separated using a Proxeon EASY-nLC™ 1000 UHPLC system (Thermo Scientific) and detected with a Q Exactive™ mass spectrometer (Thermo Scientific). The fold change in abundance of each histone peptide from the input sample compared to the pull down was calculated from the light:heavy ratio in detected peak size.

For assay [2], the target named is T2, mammalian mononucleosomes from HEK-293T cells (Homo sapiens, UniProt P62805).
T2 construct: endogenous in cells; host or cells: HEK293T (chromatin digested with MNase, glycerol gradient)
The assay is described as above. It is filed as binding. The conditions noted are these: SSX1 pulldown, parent peptide H4K20. The method, then: as §1

The test system of assay [3] is mammalian mononucleosomes from HEK-293T cells. The description is as above. Format: binding, human. The settings on record: SSX1 pulldown. How it is done:
as §1

The mark [4] stands for this setting: HEK293T nucleosomes, normalized to histone norm peptide, log2.
Setting [5] is: HEK293T nucleosomes, parent peptide H2AK5K9, normalized to histone norm peptide, log2.
[6] abbreviates: HEK293T nucleosomes, parent peptide H2AK13K15, normalized to histone norm peptide, log2.
Where [7] appears, read: HEK293T nucleosomes, parent peptide H2B, normalized to histone norm peptide, log2.
Setting [8] is: HEK293T nucleosomes, parent peptide H3K4, normalized to histone norm peptide, log2.
Where [9] appears, read: HEK293T nucleosomes, parent peptide H3K9K14, normalized to histone norm peptide, log2.
Setting [10] is: HEK293T, parent peptide H2AK5K9.
The mark [11] stands for this setting: HEK293T, parent peptide H3K9K14.

Values joined by “and” are separate entries in the source; they are usually repeats but may differ in a detail not shown here. Equal values may be shown once.

Turning to “SS18-SSX: SS18 aa 1-379 fused to the C-terminal 78 aa of SSX1 (SEQ ID NO: 225)”, the “localization / recruitment to Barr bodies” value in the assay on Barr bodies (inactive X) was “strong colocalization”. In addition, in the assay with SYO-1 SS cells, the “proliferation of SS cells with shSSX knockdown of endogenous SS18-SSX” value is reported as “rescued proliferation”.
In the case of SSX1, in assay [1], the “log2norm (Light/Heavy) intensity ratio of H2AZ(1to19)K4ac1” value is −0.217 and 0.048; the “log2norm (Light/Heavy) intensity ratio of H2AZ(1to19)ac0” value is −0.784 and −0.697. For the same substance, in assay [2] (setting [4]), the “log2norm (Light/Heavy) intensity ratio of H4(20to23)K20me0” value is 0.017 and 0.092; the “log2norm (Light/Heavy) intensity ratio of H4(20to23)K20me1” value was −0.427 and −0.443; the “log2norm (Light/Heavy) intensity ratio of H4(20to23)K20me2” value was −0.414 and −0.391; the “log2norm (Light/Heavy) intensity ratio of H4(20to23)K20me3” value is −0.109 and 0.055. In assay [2] (HEK293T), the “H4(20to23)K20me1 norm to ctrl avg” value is 0.211 and 0.195; the “H4(20to23)K20me2 norm to ctrl avg” value was 0.024 and 0.047. Also, in assay [3] (setting [5]), the “log2norm (Light/Heavy) intensity ratio of H2A(4to11)K5ac1” value is 0.569 and 0.624; the “log2norm (Light/Heavy) intensity ratio of H2A(4to11)K5ac1K9ac1” value is −0.031 and −0.049; the “log2norm (Light/Heavy) intensity ratio of H2A(4to11)K9ac1” value is −0.254 and −0.375; the “log2norm (Light/Heavy) intensity ratio of H2A(4to11)ac0” value is −0.026 and 0.061. Also, in assay [3] (setting [6]), the “log2norm (Light/Heavy) intensity ratio of H2A(12to17)K13ac1” value was 0.032 and −0.047; the “log2norm (Light/Heavy) intensity ratio of H2A(12to17)K15ac1” value was 0.042 and −0.086. Moreover, in assay [3] (setting [7]), the “log2norm (Light/Heavy) intensity ratio of H2B(1to29)K5ac1” value was 0.273 and 0.323; the “log2norm (Light/Heavy) intensity ratio of H2B(1to29)ac0” value was 0.152 and 0.160. Further, in assay [3] (setting [8]), the “log2norm (Light/Heavy) intensity ratio of H3K4ac1” value was 0.263 and 0.320; the “log2norm (Light/Heavy) intensity ratio of H3K4me0” value is 0.549 and 0.339; the “log2norm (Light/Heavy) intensity ratio of H3K4me2” value is 0.778 and 0.532; the “log2norm (Light/Heavy) intensity ratio of H3K4me3” value is 0.766 and 0.505. Also, in assay [3] (setting [9]), the “log2norm (Light/Heavy) intensity ratio of H3K9me1S10ph1K14ac1” value is −2.668 and −2.507; the “log2norm (Light/Heavy) intensity ratio of H3K9me2S10ph1K14ac1” value was −0.870 and −1.009. Besides, the “log2norm (Light/Heavy) intensity ratio of H3K79me2” value in assay [3] (HEK293T nucleosomes, parent peptide H3K79, normalized to histone norm peptide, log2) is 0.826 and 0.557. For the same substance, in assay [3] (setting [10]), the “H2A(4to11)K5ac1K9ac1 norm to ctrl avg” value was 0.050 and 0.032; the “H2A(4to11)K9ac1 norm to ctrl avg” value was 0.404 and 0.283. Moreover, the “H2A(12to17)K13ac1 norm to ctrl avg” value in assay [3] (HEK293T, parent peptide H2AK13K15) was 0.266 and 0.188. For the same substance, in assay [3] (HEK293T, parent peptide H2B), the “H2B(1to29)K5ac1 norm to ctrl avg” value was 0.154 and 0.203; the “H2B(1to29)ac0 norm to ctrl avg” value was 0.191 and 0.199. In assay [3] (HEK293T, parent peptide H3K4), the “H3K4me0 norm to ctrl avg” value is 0.514 and 0.304. Moreover, in assay [3] (setting [11]), the “H3K9me1S10ph1K14ac1 norm to ctrl avg” value was 0.290 and 0.451; the “H3K9me2S10ph1K14ac0 norm to ctrl avg” value was 1.301 and 0.892; the “H3K9me2S10ph1K14ac1 norm to ctrl avg” value is 1.152 and 1.012.
